Assay results reported in ChEMBL document CHEMBL1142331, “Activation and inhibition of DNA methyltransferases by S-adenosyl-L-homocysteine analogues” (Bioorg Med Chem, 2008).
Calls of active or inactive are those of the source. The calls are words filed in the database; no cut-off is given here.

Tests used:
[1] = system: ER1727; test: Inhibition of M.HhaI DNA methyltransferase expressed in ER1727 cells at 15 uM after 30 mins; type: cell-based; conditions: Haemophilus haemolyticus
[2] = system: Escherichia coli; test: Inhibition of Escherichia coli DNA methyltransferase at 15 uM after 30 mins
[3] = system: Escherichia coli; test: Inhibition of Escherichia coli DNA methyltransferase assessed as fluorescence quenching measured
[4] = system: Escherichia coli; test: Activation of Escherichia coli DNA methyltransferase upto 20 uM
[5] = system: Haemophilus haemolyticus; test: Activation of M.HhaI DNA methyltransferase upto 16 uM
[6] = biological target: T1, DNA adenine methylase (Escherichia coli K-12) (UniProt P0AEE8); test: Inhibition of Escherichia coli DNA adenine methyltransferase at 15 uM after 30 mins
T1 sequence (whole entry): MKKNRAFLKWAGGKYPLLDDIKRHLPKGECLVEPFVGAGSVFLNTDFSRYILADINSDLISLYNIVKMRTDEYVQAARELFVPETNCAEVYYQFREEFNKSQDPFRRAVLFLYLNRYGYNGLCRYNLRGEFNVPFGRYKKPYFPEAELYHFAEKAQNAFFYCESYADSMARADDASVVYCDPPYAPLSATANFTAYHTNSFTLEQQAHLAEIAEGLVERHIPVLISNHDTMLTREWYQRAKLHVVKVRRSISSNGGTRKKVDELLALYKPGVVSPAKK

[7] = Inhibition of Escherichia coli DNA methyltransferase measured by secondary plot
[8] = Inhibition of Escherichia coli DNA methyltransferase measured by dixon plot
[9] = system: Escherichia coli; test: Inhibition of Escherichia coli DNA methyltransferase after 30 mins
[10] = system: ER1727; test: Inhibition of M.HhaI DNA methyltransferase expressed in ER1727 cells after 30 mins; type: cell-based; conditions: Haemophilus haemolyticus

SMILES	Activity [1]	Activity [2]	also measured
Nc1ncnc2c1ncn2[C@@H]1O[C@H](CCl)[C@@H](O)[C@H]1O	inactive	inactive	
C=C=CSC[C@H]1O[C@@H](n2cnc3c(N)ncnc32)[C@H](O)[C@@H]1O	inactive	inactive	
C#CCSC[C@H]1O[C@@H](n2cnc3c(N)ncnc32)[C@H](O)[C@@H]1O	inactive	inactive	
NC(=O)CCSC[C@H]1O[C@@H](n2cnc3c(N)ncnc32)[C@H](O)[C@@H]1O	inactive	inactive	
Nc1cccc2c1ncn2[C@@H]1O[C@H](CSCCC(=O)O)[C@@H](O)[C@H]1O			Activity [3]: 5.66 µM; Activity [4]: Active; Activity [5]: Active; Activity [6]: Active
Nc1ncnc2c1ncn2[C@@H]1O[C@H](CSCCC(=O)O)[C@@H](O)[C@H]1O			Activity [3]: 22 µM; Ki [7]: 5 µM; IC50 [8]: 5 µM; Activity [9]: Dose-dependent effect; Activity [10]: Dose-dependent effect; Activity [6]: Active
O=[N+]([O-])c1cccc2c1ncn2[C@@H]1O[C@H](CO)[C@@H](O)[C@H]1O	inactive	inactive	
CCOC(=O)CCSC[C@H]1O[C@@H](n2cnc3c(N)ncnc32)[C@H](O)[C@@H]1O	inactive	inactive	Activity [3]: inactive
CC#CSC[C@H]1O[C@@H](n2cnc3c(N)ncnc32)[C@H](O)[C@@H]1O	inactive	inactive	
CSC[C@H]1O[C@@H](n2cnc3c(N)ncnc32)[C@H](O)[C@@H]1O	inactive	inactive	
C=CCSC[C@H]1O[C@@H](n2cnc3c([N+](=O)[O-])cccc32)[C@H](O)[C@@H]1O	inactive	inactive	
Nc1ncnc2c1ncn2[C@@H]1O[C@H](CSCC[C@H](N)C(=O)O)[C@@H](O)[C@H]1O	Active	Active	
